Experimental data published in patent EP0549857A1, “Antibacterial quinolone carboxylic acid derivatives” (KOREA RESEARCH INSTITUTE OF CHEMICAL TECHNOLOGY, priority 1991, dated 1993).
In brackets after ≈: the same amount, converted by molar mass. Read-outs that look alike come from different tables or passages of the source.

Assays:
[1] = tested on: Streptococcus pyogenes 308A; experiment: In vitro anti-bacterial activity test (MIC, two-fold agar dilution); format: cell-based; conditions: Mueller-Hinton agar, 10⁷ CFU/mℓ, 37°C, 18 hours, read-out: MIC
[2] = tested on: Streptococcus pyogenes 77A; experiment: as above; format: cell-based; conditions: Streptococcus pyogenes 77A; Mueller-Hinton agar, 10⁷ CFU/mℓ, 37°C, 18 hours; read-out: MIC
[3] = tested on: Streptococcus faecium MD 8b; experiment: as above; format: cell-based; conditions: Enterococcus faecium, MD8B; Streptococcus faecium MD 8b; Mueller-Hinton agar, 10⁷ CFU/mℓ, 37°C, 18 hours; read-out: MIC
[4] = tested on: Staphylococcus aureus SG 511; experiment: as above; format: cell-based; conditions: SG511; Staphylococcus aureus SG 511; Mueller-Hinton agar, 10⁷ CFU/mℓ, 37°C, 18 hours; read-out: MIC
[5] = tested on: Staphylococcus aureus 285; experiment: as above; format: cell-based; conditions: Staphylococcus aureus 285; Mueller-Hinton agar, 10⁷ CFU/mℓ, 37°C, 18 hours; read-out: MIC
[6] = tested on: Staphylococcus aureus 503; experiment: as above; format: cell-based; conditions: Staphylococcus aureus 503; Mueller-Hinton agar, 10⁷ CFU/mℓ, 37°C, 18 hours; read-out: MIC
Escherichia coli O 55 = experiment: as above; format: cell-based; conditions: O55, Mueller-Hinton agar, 10⁷ CFU/mℓ, 37°C, 18 hours, read-out: MIC
Escherichia coli DC 0 = experiment: as above; format: cell-based; conditions: DC0, Mueller-Hinton agar, 10⁷ CFU/mℓ, 37°C, 18 hours, read-out: MIC
Escherichia coli DC 2 = experiment: as above; format: cell-based; conditions: DC2, Mueller-Hinton agar, 10⁷ CFU/mℓ, 37°C, 18 hours, read-out: MIC
Escherichia coli OTEM = experiment: as above; format: cell-based; conditions: Mueller-Hinton agar, 10⁷ CFU/mℓ, 37°C, 18 hours, read-out: MIC
Escherichia coli 1507E = experiment: as above; format: cell-based; conditions: Mueller-Hinton agar, 10⁷ CFU/mℓ, 37°C, 18 hours, read-out: MIC
[7] = tested on: Pseudomonas aeruginosa 9027; experiment: as above; format: cell-based; conditions: Pseudomonas aeruginosa 9027; Mueller-Hinton agar, 10⁷ CFU/mℓ, 37°C, 18 hours; read-out: MIC
[8] = tested on: Pseudomonas aeruginosa 1592E; experiment: as above; format: cell-based; conditions: Mueller-Hinton agar, 10⁷ CFU/mℓ, 37°C, 18 hours, read-out: MIC
[9] = tested on: Pseudomonas aeruginosa 1771; experiment: as above; format: cell-based; conditions: Pseudomonas aeruginosa 1771; Mueller-Hinton agar, 10⁷ CFU/mℓ, 37°C, 18 hours; read-out: MIC
[10] = tested on: Pseudomonas aeruginosa 1771M; experiment: as above; format: cell-based; conditions: 18 h
Salmonella typhimurium = experiment: as above; format: cell-based; conditions: Salmonella enterica, Mueller-Hinton agar, 10⁷ CFU/mℓ, 37°C, 18 hours, read-out: MIC
[11] = tested on: Klebsiella aerogenes 1082E; experiment: as above; format: cell-based; conditions: Mueller-Hinton agar, 10⁷ CFU/mℓ, 37°C, 18 hours, read-out: MIC
[12] = tested on: Klebsiella aerogenes 1522E; experiment: as above; format: cell-based; conditions: Mueller-Hinton agar, 10⁷ CFU/mℓ, 37°C, 18 hours, read-out: MIC
Enterobacter cloacae P99 = experiment: as above; format: cell-based; conditions: Mueller-Hinton agar, 10⁷ CFU/mℓ, 37°C, 18 hours, read-out: MIC
[13] = tested on: Enterobacter cloacae 1321E; experiment: as above; format: cell-based; conditions: Mueller-Hinton agar, 10⁷ CFU/mℓ, 37°C, 18 hours, read-out: MIC
P. mirabilis = experiment: Preventive effect on the systemic infection; format: in vivo; conditions: Proteus mirabilis, in Mus musculus, P. mirabilis intraperitoneal infection, NMRI mice, survival on day 7, probit analysis, read-out: ED₅₀
Procedure: (§1) 10 fold of the pathogen which leads to 100% lethality were injected intraperitoneally to male and female NMRI mice weighing 18 to 20g. Immediately and after 4 hours, the dose of test compounds which was determined by two-fold serial dilution method was administered orally or subcutaneously; and on day 7, the effectiveness was evaluated in terms of ED₅₀ calculated from the number of survived mice by the probit analysis.

S. aureus 17740 = experiment: Preventive effect on the systemic infection; format: in vivo; conditions: Staphylococcus aureus, 17740, in Mus musculus, S. aureus 17740 intraperitoneal infection, NMRI mice, survival on day 7, probit analysis, read-out: ED₅₀
Procedure: as §1

in vivo = conditions: female, ICR, mouse
Procedure: Test compounds were administered to female ICR mice weighing 20 to 25g and on day 14, LD₅₀ was calculated from the number of survived mice by the probit analysis.

[14] = Oral Administration immediately and after 4 hours
[15] = Subcutaneous Injection immediately and after 4 hours

NC1CCC2=C1CN(c1c(F)cc3c(=O)c(C(=O)O)cn(C4CC4)c3c1F)C2 (centres unmarked) [Example 1, 7-[6-amino-3-azabicyclo[3,3,0]oct-1(5)ene-3-yl]-1-cyclopropyl-6,8-difluoro-1,4-dihydro-4-oxoquinoline-3-carboxylic acid] gave an MIC [1] of 0.391 µg/mL (≈ 1.01 µM), an MIC [2] of 0.098 µg/mL (≈ 0.253 µM) and an MIC [3] of 0.098 µg/mL (≈ 0.253 µM). The MIC [4] was 0.098 µg/mL (≈ 0.253 µM), the MIC [5] was 0.098 µg/mL (≈ 0.253 µM) and the MIC [6] was 0.049 µg/mL (≈ 0.126 µM). The MIC (Escherichia coli O 55) was 0.025 µg/mL (≈ 0.0645 µM), the MIC (Escherichia coli DC 0) was 0.391 µg/mL (≈ 1.01 µM) and the MIC (Escherichia coli DC 2) was 0.098 µg/mL (≈ 0.253 µM). The MIC (Escherichia coli OTEM) was 0.049 µg/mL (≈ 0.126 µM), the MIC (Escherichia coli 1507E) was 0.049 µg/mL (≈ 0.126 µM) and the MIC [7] was 1.56 µg/mL (≈ 4.03 µM). It also gave an MIC [8] of 1.56 µg/mL (≈ 4.03 µM), an MIC [9] of 1.56 µg/mL (≈ 4.03 µM) and an MIC [10] of 0.391 µg/mL (≈ 1.01 µM). For the same molecule, the MIC (Salmonella typhimurium) was 0.049 µg/mL (≈ 0.126 µM), the MIC [11] was 7 ng/mL (≈ 0.0181 µM) and the MIC [12] was 0.098 µg/mL (≈ 0.253 µM). For the same molecule, the MIC (Enterobacter cloacae P99) was 0.098 µg/mL (≈ 0.253 µM), the MIC [13] was 0.025 µg/mL (≈ 0.0645 µM) and the ED50 (P. mirabilis; [14]) was 5.5 mg/kg. It also gave an ED50 (P. mirabilis; [15]) of 1.55 mg/kg, an ED50 (S. aureus 17740; [14]) of 105 mg/kg and an ED50 (S. aureus 17740; [15]) of 25 mg/kg. The LD50 at 14 day (in vivo; ip) was 720 mg/kg and the LD50 at 14 day (in vivo; po) was 4000 mg/kg.
Molecule CNC1CCC2=C1CN(c1c(F)cc3c(=O)c(C(=O)O)cn(C4CC4)c3c1F)C2 (centres unmarked) [Example 2, 1-cyclopropyl-6,8-difluoro-7-[6-methylamino-3-azabicyclo[3,3,0]oct-1(5)ene-3-yl]-1,4-dihydro-4-oxoquinoline-3-carboxylic acid] has an MIC [1] of 0.195 µg/mL (≈ 0.486 µM), an MIC [2] of 0.098 µg/mL (≈ 0.244 µM) and an MIC [3] of 0.098 µg/mL (≈ 0.244 µM). For the same molecule, the MIC [4] was 0.049 µg/mL (≈ 0.122 µM), the MIC [5] was 0.098 µg/mL (≈ 0.244 µM) and the MIC [6] was 0.049 µg/mL (≈ 0.122 µM). For the same molecule, the MIC (Escherichia coli O 55) was 0.013 µg/mL (≈ 0.0324 µM), the MIC (Escherichia coli DC 0) was 0.781 µg/mL (≈ 1.95 µM) and the MIC (Escherichia coli DC 2) was 0.098 µg/mL (≈ 0.244 µM). For the same molecule, the MIC (Escherichia coli OTEM) was 0.098 µg/mL (≈ 0.244 µM), the MIC (Escherichia coli 1507E) was 0.098 µg/mL (≈ 0.244 µM) and the MIC [7] was 3.12 µg/mL (≈ 7.78 µM). For the same molecule, the MIC [8] was 1.56 µg/mL (≈ 3.89 µM), the MIC [9] was 1.56 µg/mL (≈ 3.89 µM) and the MIC [10] was 0.781 µg/mL (≈ 1.95 µM). The MIC (Salmonella typhimurium) was 0.391 µg/mL (≈ 0.974 µM), the MIC [11] was 13 ng/mL (≈ 0.0324 µM) and the MIC [12] was 0.049 µg/mL (≈ 0.122 µM). It also gave an MIC (Enterobacter cloacae P99) of 0.049 µg/mL (≈ 0.122 µM), an MIC [13] of 0.013 µg/mL (≈ 0.0324 µM) and an ED50 (S. aureus 17740; [14]) of 112 mg/kg. For the same molecule, the ED50 (S. aureus 17740; [15]) was 27 mg/kg, the LD50 at 14 day (in vivo; ip) was 810 mg/kg and the LD50 at 14 day (in vivo; po) was 4100 mg/kg.
